Results on nine compounds are retold here after ChEMBL document CHEMBL1201862, “PubChem BioAssay data set” (2004).

The structures appear in SMILES notation.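 Method: 48-hour compound exposure of cells in 96-well plates, five concentrations, linear interpolation of endpoints. GI50: concentration for 50% inhibition of growth.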 Activity calls are given as the source filed them. Rule as the data show it: active = GI50 up to about 1.1 µM and inactive = higher. Some results are limits rather than exact numbers.

Among the test systems are COLO 205; HCT-15; HL-60; HOP-62; HT-29; KM12; NCI-H460; OVCAR-3; OVCAR-4; OVCAR-5; SF-539; SK-MEL-2; SK-MEL-5; SK-OV-3; UACC-257; UO-31; SR; TK-10; ACHN; RXF 393.
What all share (assay): NCI-60 cell line screen, 48 h

Consider `CC(=O)Oc1c(OC(C)=O)c(-c2ccc(O)c(O)c2)c(O)c(O)c1-c1ccc(O)cc1`, for which the GI50 in the experiment with COLO 205 was > 100 µM (inactive); with HCT-15, greater than 100 µM; with HL-60 it was 54.2 µM (inactive); in the experiment on HOP-62, > 100 µM (inactive); in the experiment on HT-29, > 100 µM (inactive); in the experiment on KM12, > 100 µM (inactive). Also, the GI50 in the experiment with NCI-H460 was > 100 µM (inactive); with OVCAR-3 it was > 100 µM (inactive); with OVCAR-4, > 100 µM (inactive); in the experiment on OVCAR-5, > 100 µM (inactive); in the experiment on SF-539, > 100 µM (inactive); with SK-MEL-2 it was 29.4 µM (inactive). The GI50 in the experiment with SK-MEL-5 is 19.7 µM (inactive); in the experiment with SK-OV-3 it was > 100 µM (inactive); in the experiment on UACC-257 it was > 100 µM (inactive); in the experiment on UO-31 it was > 100 µM (inactive).
As to `COc1ccc(CC(CO)NC(=O)OCc2ccccc2)cc1Oc1ccc(CC(CO)NC(=O)OCc2ccccc2)cc1` (stereo not drawn), the GI50 in the experiment with COLO 205 was 23.1 µM (inactive); in the experiment on HCT-15 it was 29.4 µM; in the experiment on HOP-62 it was 15.3 µM (inactive); in the experiment with HT-29 it was 11.1 µM (inactive); in the experiment on KM12, 12.2 µM (inactive); in the experiment on NCI-H460, 15.7 µM (inactive). Also, the GI50 in the experiment on OVCAR-3 was 13.1 µM (inactive); with OVCAR-4 it was 27.9 µM (inactive); in the experiment on OVCAR-5, 15 µM (inactive); in the experiment with SK-MEL-2, 16.1 µM (inactive); with SK-MEL-5, 5.09 µM (inactive); with SK-OV-3, 13.4 µM (inactive). Further, the GI50 in the experiment on SR is 26.7 µM (inactive); with TK-10, 19.4 µM (inactive); in the experiment with UACC-257, 17 µM (inactive); in the experiment with UO-31 it was 14.3 µM (inactive).
Consider `COc1nc(Cl)nc(N[C@H](C)c2c3ccccc3cc3ccccc23)n1`, for which the GI50 in the experiment with ACHN is 17.8 µM (inactive); in the experiment with COLO 205, 14.4 µM (inactive); in the experiment on HCT-15 it was 13.3 µM; with HL-60, 19.1 µM (inactive); in the experiment with HOP-62 it was 14.9 µM (inactive); with HT-29, 15.5 µM (inactive). In addition, the GI50 with KM12 was 11.7 µM (inactive); in the experiment on NCI-H460 it was 17 µM (inactive); with OVCAR-3 it was 11.1 µM (inactive); with OVCAR-4 it was 3.12 µM (inactive); in the experiment with OVCAR-5, 17.3 µM (inactive); with RXF 393 it was 12.5 µM (inactive). The GI50 in the experiment on SF-539 is 17.8 µM (inactive); in the experiment on SK-MEL-2, 15.8 µM (inactive); in the experiment with SK-MEL-5, 5.38 µM (inactive); in the experiment on SK-OV-3, 15.7 µM (inactive); in the experiment on TK-10 it was 0.807 µM (active); with UACC-257, 16 µM (inactive). Moreover, the GI50 in the experiment with UO-31 is 16.9 µM (inactive).
Consider `Cc1ccc(NC(=O)CC(=O)n2nc(-c3ccccc3)c(/N=N/c3ccccc3C(=O)O)c2-c2ccccc2)cc1`, for which the GI50 with ACHN was 51.5 µM (inactive); in the experiment with COLO 205, > 100 µM (inactive); with HCT-15, greater than 100 µM; with HOP-62, > 100 µM (inactive); in the experiment on KM12, > 100 µM (inactive); in the experiment on OVCAR-3, > 100 µM (inactive). Besides, the GI50 in the experiment on OVCAR-4, in the experiment on OVCAR-5, in the experiment on RXF 393, with SF-539, in the experiment on SK-MEL-2 and in the experiment with SK-MEL-5 was > 100 µM (inactive) each time. The GI50 is > 100 µM (inactive) with SK-OV-3, > 100 µM (inactive) with SR, 38.6 µM (inactive) with TK-10 and 28.8 µM (inactive) with UO-31.
As to `CC(C)CC/N=c1/cc2n(-c3ccc(Cl)cc3)c3ccccc3nc-2cc1Nc1ccc(Cl)cc1`, the GI50 in the experiment with COLO 205 was 1.95 µM (inactive); in the experiment with HCT-15 it was 3.42 µM; in the experiment on HL-60 it was 2.51 µM (inactive); in the experiment with HOP-62, 8.71 µM (inactive); in the experiment with HT-29 it was 2.52 µM (inactive); in the experiment on KM12 it was 4.3 µM (inactive). Besides, the GI50 was 4.92 µM (inactive) in the experiment on NCI-H460; 2 µM (inactive) in the experiment on OVCAR-3; 2.65 µM (inactive) in the experiment on OVCAR-4; 12.4 µM (inactive) in the experiment on OVCAR-5; 3.37 µM (inactive) in the experiment with RXF 393; 16 µM (inactive) in the experiment with SF-539. Further, the GI50 in the experiment with SK-MEL-2 was 3.96 µM (inactive); in the experiment on SK-MEL-5, 12.7 µM (inactive); in the experiment on SK-OV-3 it was 18.1 µM (inactive); in the experiment with UACC-257, 7.6 µM (inactive); in the experiment with UO-31, 5.56 µM (inactive).
For `O=C1CN2Cc3cc(N4CCOCC4)ccc3N=C2N1`, the GI50 is 32.1 µM (inactive) in the experiment with COLO 205; 22.9 µM with HCT-15; 72.6 µM (inactive) in the experiment with HL-60; 47.1 µM (inactive) in the experiment on HOP-62; 38 µM (inactive) with HT-29; 43.3 µM (inactive) with KM12. Also, the GI50 is 41.5 µM (inactive) in the experiment with NCI-H460; 30.1 µM (inactive) in the experiment on OVCAR-3; 67.9 µM (inactive) in the experiment on OVCAR-4; 87.3 µM (inactive) in the experiment on OVCAR-5; 73.3 µM (inactive) in the experiment on RXF 393; 42.7 µM (inactive) in the experiment on SK-MEL-2. The GI50 with SK-MEL-5 was 27.8 µM (inactive); in the experiment on SK-OV-3, 25.8 µM (inactive); in the experiment with SR it was 66.1 µM (inactive); in the experiment on TK-10, > 100 µM (inactive); in the experiment with UACC-257, 89.1 µM (inactive); with UO-31, 33.4 µM (inactive).
As to `O=c1cnn(C/C=C/CP(=O)(O)O)c(=O)[nH]1`, the GI50 in the experiment with ACHN was 97.1 µM (inactive); with COLO 205 it was 80 µM (inactive); in the experiment with HCT-15 it was greater than 100 µM; with HL-60, > 100 µM (inactive); in the experiment with HOP-62, > 100 µM (inactive); in the experiment on KM12 it was > 100 µM (inactive). Further, the GI50 in the experiment on NCI-H460, in the experiment on OVCAR-3, in the experiment with OVCAR-5, in the experiment with RXF 393, with SF-539 and in the experiment with SK-MEL-2 was > 100 µM (inactive) in each case. The GI50 with SK-MEL-5, in the experiment on SR, in the experiment with TK-10, in the experiment on UACC-257 and with UO-31 was > 100 µM (inactive) throughout.
Consider `CCOC(=O)C(C)OC(=O)c1ccc(C)cc1` (stereo not drawn), for which the GI50 with ACHN was > 100 µM (inactive); with COLO 205, > 100 µM (inactive); in the experiment on HCT-15, greater than 100 µM; in the experiment with HL-60, > 100 µM (inactive); in the experiment on HT-29 it was > 100 µM (inactive); with KM12, > 100 µM (inactive). For the same compound, the GI50 in the experiment with NCI-H460, with OVCAR-3, in the experiment with OVCAR-5, with RXF 393, with SF-539 and with SK-MEL-2 was > 100 µM (inactive) throughout. Moreover, the GI50 in the experiment with SK-MEL-5, in the experiment on SK-OV-3, in the experiment with SR, in the experiment on TK-10, in the experiment on UACC-257 and with UO-31 was > 100 µM (inactive) each time.
Turning to `COc1ccc2c(=O)c(O)c(-c3ccc(OC)c(OC)c3)oc2c1`, the GI50 with ACHN is 3.54 µM (inactive); in the experiment on COLO 205 it was 28.9 µM (inactive); in the experiment on HCT-15, 3.5 µM; in the experiment with HL-60, 1.66 µM (inactive); with HOP-62, 3.98 µM (inactive); in the experiment on HT-29 it was 4.92 µM (inactive). Moreover, the GI50 with NCI-H460 was 3.35 µM (inactive); in the experiment on OVCAR-3, 2.84 µM (inactive); in the experiment on OVCAR-4, 0.191 µM (active); in the experiment with OVCAR-5 it was 20.8 µM (inactive); with SK-MEL-5, 5.5 µM (inactive); in the experiment on SK-OV-3 it was 5.42 µM (inactive). For the same compound, the GI50 in the experiment with SR is 4.08 µM (inactive); in the experiment with TK-10, 4.91 µM (inactive); in the experiment on UACC-257, 6.76 µM (inactive); in the experiment with UO-31, 2.47 µM (inactive).
